Experimental findings from ChEMBL document CHEMBL1159353, “New stigmastane sterols from Ajuga salicifolia” (J Nat Prod, 2003) are described below.

Assay [1] concerns Jurkat. The assay is described as follows: Cytotoxicity against human Jurkat cells at 20 ug/ml. It counts as functional, cell-based.
Assay [2] concerns KB. The assay is described as follows: Cytotoxicity against human KB cells. Type of assay: functional, cell-based.

In brackets after ≈: the same amount, converted by molar mass. Activity calls are given as the source filed them. The rule behind the calls is not given here.

For `CC[C@H]1C[C@H]([C@@H](C)C2[C@@H](O)C[C@H]3C4=CC[C@H]5C[C@@H](O[C@@H]6O[C@H](CO)[C@@H](O)[C@H](O)[C@H]6O[C@@H]6O[C@H](CO)[C@@H](O)[C@H](O)[C@H]6O)CC[C@]5(C)[C@H]4CC[C@]23C)O[C@]1(C)CO[C@@H]1O[C@H](CO)[C@@H](O)[C@H](O)[C@H]1O[C@@H]1O[C@H](CO)[C@@H](O)[C@H](O)[C@H]1O` (stereo partly specified), the outcome in assay [1] was inactive.

For `CC[C@H]1[C@H](O)[C@H]([C@@H](C)[C@@]2(O)[C@@H](O)C[C@H]3C4=CC[C@H]5C[C@@H](O[C@@H]6O[C@H](COC(C)=O)[C@@H](O)[C@H](O)[C@H]6O)CC[C@]5(C)[C@H]4CC[C@@]32C)O[C@]1(C)COC(C)=O`, in assay [1], the result was inactive.

`CC[C@H]1[C@H](O)[C@H]([C@@H](CO)[C@@]2(O)[C@@H](O)C[C@H]3C4=CC[C@H]5C[C@@H](O)CC[C@]5(C)[C@H]4CC[C@@]32C)O[C@]1(C)CO` [AJUGASALICIGENIN] returned an IC50 in assay [2] of 1 µg/mL (≈ 1.97 µM). Also, the result in assay [1] was inactive.

As for `CC[C@H]1[C@H](O)[C@H]([C@@H](CO)[C@@]2(O)[C@@H](O)C[C@H]3C4=CC[C@H]5C[C@@H](O[C@@H]6O[C@H](CO)[C@@H](O)[C@H](O)[C@H]6O)CC[C@]5(C)[C@H]4CC[C@@]32C)O[C@]1(C)CO` [AJUGASALICIOSIDE F], the concentration for half-maximal inhibition (IC50) in assay [2] came to 13 µg/mL (≈ 19.4 µM). Further, in assay [1], the result was inactive.

One may read the IC50 as the midpoint of a concentration-inhibition curve. The low end stands for greater potency in that assay, the high end for weaker potency in that assay.
